From patent publication US8735439B2, “Chlorin e6-folic acid conjugate, preparation method thereof, and a pharmaceutical composition for the treatment of cancer comprising the same” (Diatech Korea Co., Ltd., priority 2009, dated 2014)

Key:
[1] = Spectral and fluorescent parameters of chlorin e6 conjugate in different systems; assay type: physicochemical
Experimental: Pigment-protein complexes have been formed by adding to the solution of human serum albumin (HAS) a specific amount of photosensitizer dissolved in the same buffer. […] Similarly, the photosensitizer was included in detergent micelle (Triton X-100, C=10^−3M).
The electronic absorption spectra of the subject solution were recorded on Specord UV-Vis. The fluorescence spectra and value of degree of fluorescence polarization (P) were recorded on an automatic spectrofluorimeter (Institute of Physics). Life time of photosensitizer fluorescence (ts) was estimated using an impulse fluorometer operating in the mode of photons counting.
The main feature of the absorption spectrum is intensive (ε=4.8 10^4 M^−1 cm^−1) Qx (0-0) band at 660 nm, which falls into the spectral window of the majority of biological tissues.
Complex formation of chlorin e6 conjugate, and HSA, liposomes or detergent micelles leads to bathochromic shift in the absorption and fluorescence spectra of pigment. However, an increase in fluorescence photoresponse (B) was observed, which correlates with the growth of life time (ts) without changing of the Kravec integral value.

[2] = Quenching of excited triplet states by molecular oxygen; assay type: physicochemical
Source text: The data presented in Table 2 supports the analysis of specific features of quenching of excited triplet states of chlorin e6-conjugate by molecular oxygen in solutions and biological systems.

Hela cells [3] = assay: Accumulation in Hela cells; assay type: cell-based; conditions: for concentration in Hela cells: 2×10^−5 M/l, 37° C.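 For concentration in Hela cells: measured as suspension fluorescence intensity at excitation 405 nm and emission 665 nm.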
Experimental: The cellular accumulation and the targeted delivery of the photoactive compounds were investigated using Hela cells, which is one of the numerous tumor cell types that overexpress folate receptors.
Cells were cultivated for 3 days in medium 199, and transferred to Hank's solution/medium 199 (9/1). After 3 hours, the cell were collected by trypsin treatment from the substrate and placed in Hank's solution (10^5 ? /ml). To cell suspensions, chlorin e6 conjugates were added at a concentration of 2×10^−5 M/l, and incubated at 37° C. After 1, 5, 10, 15, and 24 hours, the samples were centrifuged, the pellet was washed with the cooled Hank's solution, and transferred to Hank's solution at a concentration being equal to that in the initial suspension.

Hela cells [4] = assay: Competition assay with exogenous folic acid, uptake in Hela cells; assay type: cell-based; conditions: 4 μM/l folic acid, 24 hours
Source text: Then, the sample was centrifuged, the supernatant was taken, and the pellet was rewashed with cooled Hank's solution. The obtained pellet was again transferred into Hank's solution.

HeLa cell culture = assay: Phototoxicity (photodynamic activity), 3.5 h incubation, 3.3 joule/cm^2; assay type: cell-based; set-up: number of HELA cells relative to the control: unit not given here; conditions: photoexposure 3.3 joule/cm^2; for number of HELA cells relative to the control: 3.5 hours incubation
Experimental: To examine the photodynamic effects of a photosensitizer on a HeLa cell culture, the photosensitizer solution was added to the nutrient media at a final concentration of 0.1, 0.5, 1.0, 5.0 or 10 mcg/ml on day 3 after transplanting the cell culture into flasks. The flasks were wrapped with a light protecting cover, and incubated at 37° C. for 3.5 hours. Then, the cells were washed with Hank's solution, and exposed on ice by a laser medical device “LD 680-2000” (wavelength: 670-690 nm) at a dose of 3.3 joule/cm^2. After 20-24 hours, the available cell monolayer was dispersed using a 0.02%-Versene solution, and the number of tumor cells was calculated in Goriaev's chamber. For each point, 3 flasks were used.

Hela cells [5] = assay: Phototoxicity, 24 h incubation, 1.5-15 joule/cm^2; assay type: cell-based; conditions: 670-690 nm
Experimental: In other experiment, the cells were incubated with photosensitizers at 37° C. for 24 hours, and irradiated by exposed on ice by a laser medical device “LD 680-2000” (wavelength of 670-690 nm) in a dose of 1.5-15 joule/cm^2.

sarcoma M-1 = assay: Accumulation kinetics of photosensitizer in rats with sarcoma M-1; assay type: in vivo; conditions: rats with sarcoma M-1, 5.0 mg/kg
Experimental: The experiments were conducted on 100 white outbred rats with subcutaneous transplantation of sarcoma M-1, 7-9 days after tumor transplant. Photosensitizers were introduced to the animals via an intravenous route, once at a dose of 2.5, 5.0 and 10.0 mg/kg in a room with a low level of light. A sterile isotonic solution of sodium chloride was used as a solvent. Follow up over the dynamics of photosensitizer accumulation in tumor and normal tissues was conducted at 30 mins, 1-5 hours, and 1-6 days after photosensitizer administration.
In tumor tissues of rats with sarcoma M-1 and normal tissues (skin of opposite haunch), the dynamics of photosensitizer accumulation was analyzed by the method of measurement of life time using computer fluorescent spectrophotometry. For this purpose, a laser-fiber spectroanalyzer “LESA-6” with a helium-neon diagnostic laser “LHN 633-25” (BIOSPEC, Moscow) was used. This allows an estimate locally of the level of photosensitizer accumulation in any organs and tissues accessible for an optical fiber probe.
For real time monitoring at every hour after administration of the drug, the distal end of a catheter was placed over the tumor and normal tissues, and the intensity of the drug accumulation was recorded on the wave length corresponding to maximum fluorescence. […]

[γ-(6-aminohexyl)folic acid]-chlorin e6 [chlorin e6 conjugate]
l^00abs ([1]; Dimethyl sulfoxide): 661 Nm
l^00fl ([1]; Dimethyl sulfoxide): 672 nm
tS (life time of fluorescence) ([1]; Dimethyl sulfoxide): 4.6 ns
B (fluorescence photoresponse) ([1]; H2O, pH 8.1): 0.16
l^00abs ([1]; H2O, pH 8.1): 657 Nm
l^00fl ([1]; H2O, pH 8.1): 664 nm
tS (life time of fluorescence) ([1]; H2O, pH 8.1): 4.3 ns
B (fluorescence photoresponse) ([1]; HSA, pH 8.1): 0.18
l^00abs ([1]; HSA, pH 8.1): 664 Nm
l^00fl ([1]; HSA, pH 8.1): 669 nm
tS (life time of fluorescence) ([1]; HSA, pH 8.1): 5.2 ns
B (fluorescence photoresponse) ([1]; Liposomes, pH 8.1): 0.21
l^00abs ([1]; Liposomes, pH 8.1): 665 Nm
l^00fl ([1]; Liposomes, pH 8.1): 670 nm
tS (life time of fluorescence) ([1]; Liposomes, pH 8.1): 5.4 ns
l^00abs ([1]; Methanol): 662 Nm
l^00fl ([1]; Methanol): 667 nm
tS (life time of fluorescence) ([1]; Methanol): 4.8 ns
B (fluorescence photoresponse) ([1]; Pyridine): 0.18
l^00abs ([1]; Pyridine): 666 Nm
l^00fl ([1]; Pyridine): 673 nm
tS (life time of fluorescence) ([1]; Pyridine): 5.0 ns
l^00abs ([1]; Tetrahydrofuran): 667 Nm
tS (life time of fluorescence) ([1]; Tetrahydrofuran): 5.0 ns
B (fluorescence photoresponse) ([1]; Triton X-100, pH 8.1): 0.19
l^00abs ([1]; Triton X-100, pH 8.1): 665 Nm
l^00fl ([1]; Triton X-100, pH 8.1): 670 nm
tS (life time of fluorescence) ([1]; Triton X-100, pH 8.1): 5.7 ns
P (degree of fluorescence polarization) ([1]; in liposomes): 0.13
bi-molecular rate constant for O2 quenching of the triplet excited state ([2]; Pyridine): 4.5×10^9 M^−1 c^−1
bi-molecular rate constant for O2 quenching of the triplet excited state ([2]; buffer solution): 1.5×10^9 M^−1 c^−1
bi-molecular rate constant for O2 quenching of the triplet excited state ([2]; lipid bilayer): 9×10^9 M^−1 c^−1
bi-molecular rate constant for O2 quenching of the triplet excited state ([2]; micellar complex (Triton X-100), upper limit): 1.5×10^9 M^−1 c^−1
bi-molecular rate constant for O2 quenching of the triplet excited state ([2]; pigment-protein complex, upper limit): 2.5×10^9 M^−1 c^−1
binding with cells over time (Hela cells [3]; Hela cells): increases linearly over 20 hours
accumulation compared with cellular uptake of free chlorin e6 (Hela cells [3]; Hela cells, after 6 hr incubation): distinctly higher
cellular uptake relative to free chlorin e6 (Hela cells [3]; Hela cells, after 24 hr incubation, on average, listed as chlorin e6-folic acid conjugate): about 10 fold
concentration in Hela cells (Hela cells [3]; incubation 1 hour): 0.40 relative units/10^4 cl.
concentration in Hela cells (Hela cells [3]; incubation 5 hours): 1.80 relative units/10^4 cl.
concentration in Hela cells (Hela cells [3]; incubation 10 hours): 2.50 relative units/10^4 cl.
concentration in Hela cells (Hela cells [3]; incubation 15 hours): 12.5 relative units/10^4 cl.
concentration in Hela cells (Hela cells [3]; incubation 24 hours): 15.0 relative units/10^4 cl.
effect of free folic acid on uptake in Hela cells (Hela cells [4]): significantly reduced the uptake
number of HELA cells relative to the control (HeLa cell culture; 0.1 mcg/ml): 65.1
number of HELA cells relative to the control (HeLa cell culture; 0.5 mcg/ml): 42.3
number of HELA cells relative to the control (HeLa cell culture; 1.0 mcg/ml): 12.6
inhibition of proliferation of Hela cells (HeLa cell culture; 5-10 mcg/ml): fully inhibited the proliferation
number of HELA cells relative to the control (HeLa cell culture; 5.0 mcg/ml): 0.1
phototoxicity in survival test (Hela cells [5]): improved the photosensitivity
time of maximum accumulation in tumor tissue (sarcoma M-1): 2 to 5 h
